Results as given in patent publication US20220227773A1, “FUSED RING COMPOUND, PREPARATION METHOD THEREFOR AND USE THEREOF” (SHANGHAI INSTITUTE OF MATERIA MEDICA, CHINESE ACADEMY OF …, priority 2019, published 2022).
Counter-ions that a name gives are not always drawn. Like-named read-outs stand apart in the source and are kept apart here.

Columns and labels:
[1] = target: T1, human recombinant 5-HT3 receptor (Homo sapiens, UniProt P46098); assay: 5-HT3 receptor affinity assay (3H-BRL 43694 radioligand binding); details: read-out: inhibition (%) at 1 μM
T1 construct: expressed in transfected cells; host or cells: HEK293 (membrane preparation)
T1 sequence (P46098 24-478): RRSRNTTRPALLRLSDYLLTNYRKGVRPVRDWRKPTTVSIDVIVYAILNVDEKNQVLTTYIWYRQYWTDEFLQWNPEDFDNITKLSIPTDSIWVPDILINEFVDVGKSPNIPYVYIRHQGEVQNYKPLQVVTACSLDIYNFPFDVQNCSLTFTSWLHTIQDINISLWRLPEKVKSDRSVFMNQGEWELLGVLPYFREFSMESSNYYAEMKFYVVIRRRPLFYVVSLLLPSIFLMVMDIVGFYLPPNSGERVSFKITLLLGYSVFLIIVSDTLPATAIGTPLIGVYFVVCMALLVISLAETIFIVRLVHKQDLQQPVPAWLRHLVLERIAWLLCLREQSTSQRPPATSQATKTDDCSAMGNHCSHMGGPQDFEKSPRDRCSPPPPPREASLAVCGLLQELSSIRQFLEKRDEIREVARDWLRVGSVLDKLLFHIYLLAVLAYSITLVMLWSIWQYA

mice [2] = assay: Tail suspension test (TST) in mice; format: in vivo; details: Mus musculus, ip
Description: (§1) 3. In Vivo Drug Efficacy Test (Mouse Forced Swimming Model)
(§2) Experimental animals: C57BL/6 mice (Shanghai Xipuer-Bikai Experimental Animal Co., Ltd.), male, 6 weeks old, weighing 15-20 g. ICR mice (Shanghai Xipuer-Bikai Experimental Animal Co., Ltd.), male, 6 weeks old, weighing 20-25 g. All the ordered mice were fed in a standard environment for 2-3 weeks before test.
Tail suspension test (TST): the mice were tail fixed to the apparatus with a medical tape for 6 min, the whole process was recorded by the camera. When analyzing the data, only the immobility time of the mice in the last 4 min was counted.
(§3) The results were analyzed by one-way analysis of variance. […] FST: Forced swimming test; TST: Tail suspension test.

[3] = target: T2, hSERT (5-HTT) in HEK293-hSERT cells (Homo sapiens, UniProt P31645); assay: 5-HTT reuptake activity assay (fluorescence neurotransmitter transporter uptake kit); format: cell-based; details: serotonin reuptake inhibition
T2 construct: expressed in transfected cells; host or cells: HEK293
T2 sequence (P31645 whole entry): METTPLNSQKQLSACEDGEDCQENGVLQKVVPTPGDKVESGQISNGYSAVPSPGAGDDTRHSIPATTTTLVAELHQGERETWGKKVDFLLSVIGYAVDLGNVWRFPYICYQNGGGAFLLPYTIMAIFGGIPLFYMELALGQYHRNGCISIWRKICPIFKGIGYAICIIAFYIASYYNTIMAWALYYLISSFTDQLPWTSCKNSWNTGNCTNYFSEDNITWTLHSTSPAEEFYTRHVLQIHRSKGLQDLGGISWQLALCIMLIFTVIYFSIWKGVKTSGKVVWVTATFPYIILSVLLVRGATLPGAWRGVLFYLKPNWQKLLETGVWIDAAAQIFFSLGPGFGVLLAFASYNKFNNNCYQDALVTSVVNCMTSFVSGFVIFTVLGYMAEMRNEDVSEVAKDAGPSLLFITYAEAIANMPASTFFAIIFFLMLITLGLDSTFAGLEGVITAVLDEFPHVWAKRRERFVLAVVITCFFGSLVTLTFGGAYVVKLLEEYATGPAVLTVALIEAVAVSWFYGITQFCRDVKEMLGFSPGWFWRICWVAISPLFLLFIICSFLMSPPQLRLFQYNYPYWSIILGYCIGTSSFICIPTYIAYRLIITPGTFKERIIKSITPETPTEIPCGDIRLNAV

mice [4] = assay: Forced swimming test (FST) in mice; format: in vivo; details: Mus musculus
Description: as §1, §2
Forced Swimming Test (FST): in the forced swimming apparatus, the water level is 45 cm, and the water temperature is 25° C. Before the experiment, the mice were placed in the experimental room for 1 h for adapting to the environment. At the beginning of the experiment, the mice were placed in the apparatus for 6min, and the whole process was recorded with a camera. When analyzing the data, only the immobility time of the mice in the last 4 min was counted, and the result was expressed by mean±SD.
as §3

[5] = TST, dose significantly reducing immobility time of mice, read-out: Effective dose
[6] = read-out: Effective dose (mg/kg)
[7] = 1 μM compound, 0.5 nM 3H-BRL 43694, HEK293 membranes
[8] = ip, read-out: Effective dose (mg/kg)
[9] = po, read-out: Effective dose (mg/kg)

| SMILES | inhibition at 1 µM [1] [%] | minimal effective dose (mice [2]; [5]) [mg/kg] | IC50 [3] [nM] | minimal effective dose (mice [2]; [6]) [mg/kg] | inhibition at 1 µM [1, 7] [%] | minimal effective dose (mice [4]; [8]) [mg/kg] | minimal effective dose (mice [4]; [9]) [mg/kg] | minimal effective dose (mice [4]; po, FST, dose significantly reducing immobility time of mice, read-out: Effective dose) [mg/kg] |
| --- | --- | --- | --- | --- | --- | --- | --- | --- |
| c1cc2cc(N3CCC4CNCC4CC3)ccc2s1 (stereo not drawn) [Example 7, 6-(Benzothiophen-5-yl)decahydropyrrolo[3,4-d]azepine maleate] | 101 | 10 | < 10 | – | – | – | – | – |
| O=C(O)/C=C\C(=O)O.c1cc(N2CCC3CNCC3CC2)c2sccc2c1 (stereo not drawn) [Example 36, 6-(Benzo[b]thiophen-7-yl)decahydropyrrolo[3,4-d]azepine maleate] | 89 | 10 | < 10 | – | – | – | – | – |
| O=C(O)/C=C\C(=O)O.c1ccc2sc(N3CC4CNCC4C3)cc2c1 (stereo not drawn) [Example 22, 2-(Benzo[b]thiophen-2-yl)octahydropyrrolo[3,4-c]pyrrole maleate] | – | – | < 50 | 10 | – | – | – | – |
| Cl.c1ccc2sc(C3CC4CNCC4C3)cc2c1 (stereo not drawn) [Example 50, 5-(benzothiophen-2-yl)octahydrocyclopenta[c]pyrrole hydrochloride] | – | – | < 200 | – | 83 | 10 | – | – |
| c1ccc2cc(N3CC4CNCC4C3)ccc2c1 (stereo not drawn) [Example 1, 2-(naphthalen-2-yl)octahydropyrrolo[3,4-c]pyrrole] | 106 | – | < 10 | – | – | – | 5 | – |
| O=C(O)/C=C\C(=O)O.c1ccc2cc(N3CCC4CNCC4CC3)ccc2c1 (stereo not drawn) [Example 39, 6-(naphthalen-2-yl)decahydropyrrolo[3,4-d]azepine maleate] | 92 | 10 | < 10 | – | – | – | – | – |
| CN1CC2CN(c3cccc(Cl)c3Cl)CC2C1.O=C(O)C(=O)O (stereo not drawn) [Example 28, 2-(2,3-dichlorophenyl)-5-methyloctahydropyrrolo[3,4-c]pyrrole oxalate] | 82 | – | < 200 | 10 | – | – | – | – |
| O=C(O)/C=C\C(=O)O.c1cc(N2CC3CNCC3C2)c2sccc2c1 (stereo not drawn) [Example 10, 2-(Benzo[b]thiophen-7-yl)octahydropyrrolo[3,4-c]pyrrole maleate] | 86 | – | < 50 | – | – | 10 | – | – |
| O=C(O)/C=C\C(=O)O.c1cc(N2CC3CCNCCC3C2)c2ccsc2c1 (stereo not drawn) [Example 41, 2-(Benzo[b]thiophen-4-yl)decahydropyrrolo[3,4-d]azepine maleate] | 86 | 10 | < 10 | – | – | – | – | – |
| CN1CC2CN(c3ccc(Cl)c(Cl)c3)CC2C1 (stereo not drawn) [Example 17, 2-(3,4-dichlorophenyl)-5-methyloctahydropyrrolo[3,4-c]pyrrole] | – | – | < 10 | – | 93 | – | 5 | – |
| Clc1ccc(N2CC3CNCC3C2)cc1Cl (stereo not drawn) [Example 16, 2-(3,4-dichlorophenyl)octahydropyrrolo[3,4-c]pyrrole] | – | – | < 10 | – | 96 | 3 | – | – |
| O=C(O)/C=C\C(=O)O.c1cc(N2CCC3CNCC3CC2)c2ccsc2c1 (stereo not drawn) [Example 38, 6-(Benzo[b]thiophen-4-yl)decahydropyrrolo[3,4-d]azepine maleate] | 103 | 10 | < 10 | – | – | – | – | – |
| O=C(O)/C=C\C(=O)O.c1cc(N2CC3CNCC3C2)c2ccsc2c1 (stereo not drawn) [Example 12, 2-(Benzo[b]thiophen-4-yl)octahydropyrrolo[3,4-c]pyrrole maleate] | 101 | – | < 50 | – | – | 3 | – | – |
| CN1CC2CN(c3ccc4ccccc4c3F)CC2C1.O=C(O)/C=C\C(=O)O (stereo not drawn) [Example 32, 2-(1-fluoronaphthalen-2-yl)-5-methyloctahydropyrrolo[3,4-c]pyrrole maleate] | 103 | – | < 10 | – | – | – | – | 20 |
| CN1CC2CN(c3ccc4sccc4c3)CC2C1.Cl (stereo not drawn) [Example 15, 2-(Benzo[b]thiophen-5-yl)-5-methyloctahydropyrrolo[3,4-c]pyrrole hydrochloride] | – | – | < 10 | – | 70 | – | 2.5 | – |
| Br.CN1CC2CN(c3cccc4sccc34)CC2C1 (stereo not drawn) [Example 13, 2-(Benzo[b]thiophen-4-yl)-5-methyloctahydropyrrolo[3,4-c]pyrrole hydrobromide] | 70 | – | < 50 | – | – | 5 | – | – |
| Clc1cccc(N2CCC3CNCC3CC2)c1Cl.O=C(O)/C=C\C(=O)O (stereo not drawn) [Example 37, 6-(2,3-dichlorophenyl)decahydropyrrolo[3,4-d]azepine maleate] | 80 | – | < 10 | – | – | 10 | – | – |
| Fc1c(N2CC3CNCC3C2)ccc2ccccc12.O=C(O)/C=C\C(=O)O (stereo not drawn) [Example 31, 2-(1-fluoronaphthalen-2-yl)octahydropyrrolo[3,4-c]pyrrole maleate] | 101 | – | < 10 | – | – | – | 20 | – |
| Cl.c1ccc2cc(C3CC4CNCC4C3)ccc2c1 (stereo not drawn) [Example 55, 5-(naphthalen-2-yl)octahydrocyclopenta[c]pyrrole hydrochloride] | – | – | < 10 | – | 75 | – | 5 | – |
| CCN1CC2CN(c3ccc4ccccc4c3)CC2C1.O=C(O)C(=O)O (stereo not drawn) [Example 25, 2-ethyl-5-(naphthalen-2-yl)octahydropyrrolo[3,4-c]pyrrole oxalate] | – | 10 | – | – | – | – | – | – |
| CN1CC2CN(c3ccc4ccccc4c3)CC2C1 (stereo not drawn) [Example 2, 2-methyl-5-(naphthalen-2-yl)octahydropyrrolo[3,4-c]pyrrole] | – | – | < 10 | – | 97 | – | 5 | – |
